The target of the assay is JAK1 (Homo sapiens (Human), UniProt P23458). Briefly: Analysis of JAK1 activity inhibition ability (ADP-Glo Kinase Assay). The conditions noted are these: JAK1 enzyme, ADP-Glo luminescence, ATP 250 uM, IRS-itide substrate, 30° C. 40 minutes; read-out: IC50. The format is biochemical. The procedure, abridged:
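ADP-Glo luminescence read-out of ADP production, with IC50 taken as the concentration halving JAK1 activity relative to control. Enzyme was incubated 40 min at 30 °C with compound, IRS-itide (40 ng/mL) and ATP (250 uM), concentrations as prepared in pH 7.5 Tris-HCl/MgCl2/BSA/DTT buffer.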
(In ADP-Glo the light output rises with the ADP produced.)

Sequence of JAK1 (P23458 whole entry): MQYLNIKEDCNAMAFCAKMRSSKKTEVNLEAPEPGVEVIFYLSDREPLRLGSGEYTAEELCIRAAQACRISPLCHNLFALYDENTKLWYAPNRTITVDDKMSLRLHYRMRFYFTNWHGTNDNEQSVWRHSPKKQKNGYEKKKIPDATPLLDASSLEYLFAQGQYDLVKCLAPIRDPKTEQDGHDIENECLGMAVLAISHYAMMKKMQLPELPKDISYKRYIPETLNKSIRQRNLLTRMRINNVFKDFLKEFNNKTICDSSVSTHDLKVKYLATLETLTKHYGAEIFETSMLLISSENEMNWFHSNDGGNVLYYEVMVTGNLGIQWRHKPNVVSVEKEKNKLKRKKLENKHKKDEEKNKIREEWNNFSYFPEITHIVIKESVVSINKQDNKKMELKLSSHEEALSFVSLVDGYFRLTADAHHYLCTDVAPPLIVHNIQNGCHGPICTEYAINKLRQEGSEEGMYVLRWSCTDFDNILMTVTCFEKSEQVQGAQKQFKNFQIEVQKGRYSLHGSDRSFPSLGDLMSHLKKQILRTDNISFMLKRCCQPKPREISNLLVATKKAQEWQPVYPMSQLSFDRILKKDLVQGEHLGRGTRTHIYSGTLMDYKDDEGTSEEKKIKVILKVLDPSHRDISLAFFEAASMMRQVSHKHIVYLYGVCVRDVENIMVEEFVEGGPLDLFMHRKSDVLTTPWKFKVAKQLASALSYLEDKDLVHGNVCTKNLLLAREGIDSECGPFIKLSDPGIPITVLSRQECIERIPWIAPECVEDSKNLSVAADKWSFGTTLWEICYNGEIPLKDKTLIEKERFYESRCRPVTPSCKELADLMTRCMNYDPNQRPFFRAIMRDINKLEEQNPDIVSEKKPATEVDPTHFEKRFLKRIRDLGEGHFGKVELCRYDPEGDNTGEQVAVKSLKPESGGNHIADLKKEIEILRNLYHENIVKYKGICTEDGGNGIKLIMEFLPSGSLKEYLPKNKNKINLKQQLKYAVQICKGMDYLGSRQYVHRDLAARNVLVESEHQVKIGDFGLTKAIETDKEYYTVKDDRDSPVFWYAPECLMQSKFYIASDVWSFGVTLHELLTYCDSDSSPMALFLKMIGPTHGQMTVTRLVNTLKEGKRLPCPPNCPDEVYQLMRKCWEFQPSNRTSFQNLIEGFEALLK

As a reminder, the IC50 is the midpoint of a concentration-inhibition curve. For `O=C(Nc1cc(C2=CCN(C(=O)N3CCOCC3)CC2)c2cc[nH]c2n1)C1CC1` [Example 446, N-(4-(1-(morpholine-4-carbonyl)-1,2,3,6-tetrahydropyridin-4-yl)-1H-pyrrolo[2,3-b]pyridin-6-yl)cyclopropanecarboxamide], the IC50 is more than 200 nM.
Consider `N#CCNC(=O)N1CC=C(c2cc(NC(=O)C3CC3)nc3[nH]ccc23)CC1` [Example 447, N-(cyanomethyl)-4-(6-(cyclopropanecarboxamido)-1H-pyrrolo[2,3-b]pyridin-4-yl)-3,6-dihydropyridine-1 (2H)-carboxamide], for which the IC50 was in the range of 20 to 200 nM.
Consider `O=C(Nc1cc(C2=CC3CCC(C2)N3C(=O)NCC(F)(F)F)c2cc[nH]c2n1)C1CC1` (stereo not drawn) [Example 448, 3-(6-(cyclopropanecarboxamido)-1H-pyrrolo[2,3-b]pyridin-4-yl)-N-(2,2,2-trifluoroethyl)-8-azabicyclo[3.2.1]oct-2-ene-8-carboxamide], for which the IC50 is less than 20 nM.
The value for `CCCCNC(=O)N1C2C=C(c3cc(NC(=O)C4CC4)nc4[nH]ccc34)CC1CC2` (stereo not drawn) [Example 449, N-butyl-3-(6-(cyclopropanecarboxamido)-1H-pyrrolo[2,3-b]pyridin-4-yl)-8-azabicyclo[3.2.1]oct-2-ene-8-carboxamide] was 20 to 200 nM.
As for `O=C(Nc1cc(C2=CCN(C(=O)NC(C3CC3)C(F)(F)F)CC2)c2cc[nH]c2n1)C1CC1` (stereo not drawn) [Example 450, 4-(6-(cyclopropanecarboxamido)-1H-pyrrolo[2,3-b]pyridin-4-yl)-N-(1-cyclopropyl-2,2,2-trifluoroethyl)-3,6-dihydropyridine-1 (2H)-carboxamide], the figure is more than 200 nM.
On to `O=C(Nc1cc(C2=CCN(C(=O)n3ccnc3)CC2)c2cc[nH]c2n1)C1CC1` [Example 451, N-(4-(1-(1H-imidazole-1-carbonyl)-1,2,3,6-tetrahydropyridin-4-yl)-1H-pyrrolo[2,3-b]pyridin-6-yl)cyclopropanecarboxamide], for which the IC50 was in the range of 20 to 200 nM.
The value for `CC1CN(C(=O)n2ccnc2)CC=C1c1cc(NC(=O)C2CC2)nc2[nH]ccc12` (stereo not drawn) [Example 452, N-(4-(1-(1H-imidazole-1-carbonyl)-3-methyl-1,2,3,6-tetrahydropyridin-4-yl)-1H-pyrrolo[2,3-b]pyridin-6-yl)cyclopropanecarboxamide] was less than 20 nM; that for `CC1CN(C(=O)NCC(F)(F)F)CC=C1c1cc(NC(=O)C2CC2)nc2[nH]ccc12` (stereo not drawn) [Example 453, 4-(6-(cyclopropanecarboxamido)-1H-pyrrolo[2,3-b]pyridin-4-yl)-3-methyl-N-(2,2,2-trifluoroethyl)-3,6-dihydropyridine-1 (2H)-carboxamide] was less than 20 nM; that for `CC(C)(C)OC(=O)N1CC=C(c2cc(NC(=O)C3CC3)nc3[nH]ccc23)CC1` [Example 454, tert-butyl 4-(6-(cyclopropanecarboxamido)-1H-pyrrolo[2,3-b]pyridin-4-yl)-3,6-dihydropyridine-1 (2H)-carboxylate] was 20 to 200 nM.
As for `N#CCOC(=O)N1CC=C(c2cc(NC(=O)C3CC3)nc3[nH]ccc23)CC1` [Example 455, cyanomethyl 4-(6-(cyclopropanecarboxamido)-1H-pyrrolo[2,3-b]pyridin-4-yl)-3,6-dihydropyridine-1 (2H)-carboxylate], the figure is less than 20 nM; as for `CC1CN(C(=O)OC(C)(C)C)CC=C1c1cc(NC(=O)C2CC2)nc2[nH]ccc12` (stereo not drawn) [Example 456, tert-butyl 4-(6-(cyclopropanecarboxamido)-1H-pyrrolo[2,3-b]pyridin-4-yl)-3-methyl-3,6-dihydropyridine-1 (2H)-carboxylate], more than 200 nM.
Take `Cc1c(NC(=O)C2CC2)nc2[nH]ccc2c1C1=CCN(C(=O)OC(C)(C)C)CC1` [Example 457, tert-butyl 4-(6-(cyclopropanecarboxamido)-5-methyl-1H-pyrrolo[2,3-b]pyridin-4-yl)-3,6-dihydropyridine-1 (2H)-carboxylate]: the IC50 was more than 200 nM.

Source of the values: patent publication US11524968B2, “Heterocyclic compound as a protein kinase inhibitor” (HK inno.N Corporation, priority 2017, dated 2022).
